Data set [1] in a line: Solubility of NRTOCl in water and in canola, corn and MCT oil. The data set is classed as physicochemical. The procedure:
2154 mg of canola oil was added to a 15 mL falcon tube containing 380 mg of NRTOCl. Then, the tube was placed in a water bath and was shaken at around 35° C. until NRTOCl was completely dissolved in canola oil. After dissolving NRTOCl in canola oil, the sample was kept at room temperature for the next studies. […] Although NRTOCl is a quaternary ammonium salt, it was not dissolved in water due to the existence of three groups of oleate fatty ester in its structure. Therefore, for the stability study of NRTOCl, this compound was dispersed in DI water using 1% ethanol as a cosolvent. For this purpose, 15 mg of NRTOCl was dissolved in 0.15 ml of ethanol (1%) and then 14.85 ml of DI water was added to the mixture and gently shaken. […] Although the average size of NRTOCl in this sample was 192 nm, the images of TEM disclosed smaller particles with around 50 nm and oval and spherical shapes with aspect ratio close to unity (FIGS. 10A-10C). In the nanoparticles, the NRTOCl structures are stacked on top of each other layer-by-layer. The highly positive charge of NRTO makes the nanoparticles stable in the aqueous phase.

Data set [2] can be described thus: Particle size, zeta-potential (dynamic light scattering) and TEM of NRTOCl dispersion and emulsions. Type of data set: physicochemical. Here is the method:
The particle size distribution, mean particle diameter (Zeta average size) and zeta-potential of NRTOCl in DI water were measured by using a commercial dynamic light-scattering device (Nano-ZS, Malvern Instruments, Worcestershire, UK). Tecnai F20 TEM/STEM transmission electron microscope (200 kV) was used for characterizing the structure and morphology of prepared NRTOCl nanoparticles. Although NRTOCl is a quaternary ammonium salt, it was not dissolved in water due to the existence of three groups of oleate fatty ester in its structure. Therefore, for the stability study of NRTOCl, this compound was dispersed in DI water using 1% ethanol as a cosolvent. For this purpose, 15 mg of NRTOCl was dissolved in 0.15 ml of ethanol (1%) and then 14.85 ml of DI water was added to the mixture and gently shaken. […] Although the average size of NRTOCl in this sample was 192 nm, the images of TEM disclosed smaller particles with around 50 nm and oval and spherical shapes with aspect ratio close to unity (FIGS. 10A-10C). In the nanoparticles, the NRTOCl structures are stacked on top of each other layer-by-layer. The highly positive charge of NRTO makes the nanoparticles stable in the aqueous phase. […] The total oil phase in these emulsions were 3.2 wt. %, and the concentration of NRTOCl in total volume of each emulsion (15 mL) was 4.4 mM. In the emulsions that used Na-caseinate as an emulsifier, NaN3 (0.01 wt. %) was added to prevent the growth of bacteria. […] An NRTO in canola oil-in-water emulsion was also prepared, using 2 wt. % Tween 80 as an emulsifier in DI water (Tween emulsion). […] As expected by using Tween 80 as a neutral emulsifier, the positive charge of NRTO droplets was almost intact in the emulsion.

The subject of the next data set is porcine pancreatin. Here is the method:
In vitro digestion of NRTOCl in pure form and dissolved in MCT oil was investigated in the following procedures.
The buffer for simulated intestinal phase was prepared according to the following protocol.^29 Specifically, 60 mg of NRTOCl was dissolved in 0.3 mL ethanol and added to 10 g of a buffer solution containing 400 mg bile bovine. 0.75 mL of a CaCl2 solution (0.3 M) was added to this mixture, and the pH was adjusted around 7 by using HCl (1 M). Then, 400 mg of fresh porcine pancreatin was dispersed in 4 mL of buffer solution and added to the mixture. The sample was placed in an incubator (250 rpm) at 37°° C. for 30 minutes. Subsequently, the sample was taken out of the incubator to adjust the pH to around 7 and returned to the incubator for another 30 minutes. The incubation steps and adjusting pH were repeated every 30 minutes until 2 hours were over. For quenching the enzyme, the sample was placed in an ice bath, and then 1.5 mL of the sample was centrifuged at 14,000 rpm for 10 minutes. Finally, the aqueous phase was separated and filtered by a 0.22 μm filter for determination of released NR and nicotinamide.
60 mg of NRTOCl was dissolved in 150 mg of MCT oil to prepare 29% w/w NRTO in MCT oil. Aqueous phase was 10 g of the buffer solution containing 400 mg bile bovine. The oil phase was added to the aqueous phase and homogenized at […] for 150 seconds at room temperature. 0.75 mL of a CaCl2 solution (0.3 M) was added to this mixture, and the pH was adjusted around 7 by using HCl (1 M). Then, 400 mg of fresh porcine pancreatin was dispersed in 5 mL of buffer solution and added to the mixture. The sample was placed in an incubator (250 rpm) at 37° C. for 30 minutes. Then, the sample was taken out of the incubator to adjust the pH to around 7 (by NaOH 1 M) and returned to the incubator for another 30 minutes. The incubating and adjusting pH steps were repeated every 30 minutes until 2 hours were over. For quenching the enzyme, the sample was placed in an ice bath and then 1.5 mL of the sample was centrifuged at 14000 rpm for 10 min. Finally, the aqueous phase was separated and filtered by a 0.22 μm filter for determination of released NR and nicotinamide.
After the NRTOCl stability study in different conditions, the digestibility of this compound to produce NR in simulated intestinal fluid was studied. This enzymatic digestion used porcine pancreatin, bile bovine, and a buffer solution at pH around 7.^29 The lipase enzyme in porcine pancreatin can hydrolyze the fatty ester groups to produce NR, NRDO (nicotinamide riboside dioleates), NRMO (nicotinamide riboside monoleate) and oleic acid as the main products of digestion (FIG. 16). Moreover, nicotinamide (NAM) and ribose-trioleates (RTO) can be formed as the products of hydrolysis of NRTO not digestion. By considering this hypothesis, the NRTO digestion was studied in simulated intestinal phase.
At first, the digestion study was followed by dissolving pure NRTOCl (60 mg) in 0.3 mL of ethanol, and then this solution was added to 10 mL of buffer solution containing 400 mg of bile bovine to disperse NRTO in bile bovine solution. After that, 0.75 mL of CaCl2 solution (0.3M) was added to this mixture, and the pH was adjusted to 7.0 by adding HCl (1 M). […] The released NR and nicotinamide from the sample was measured by LC-MS and HPLC analyses.

Where [3] appears, read: NRTOCl dispersed in DI water with 1% ethanol, 1,000 ppm.

“Also recorded” adds a separate entry of the source.

Take `CCCCCCCC/C=C\CCCCCCCC(=O)OC[C@H]1O[C@@H]([n+]2cccc(C(N)=O)c2)[C@H](OC(=O)CCCCCCC/C=C\CCCCCCCC)[C@@H]1OC(=O)CCCCCCC/C=C\CCCCCCCC.[Cl-]` [NRTOCl, nicotinamide riboside trioleates chloride]: the “appearance of 15 wt. % solution in canola oil during storage” value in data set [1] (15 wt. % NRTOCl in canola oil, room temperature) was “stable and clear without any sediment”. Besides, in data set [1] (canola oil), the “solubility in canola oil” value is on record as “easily dissolved”. In addition, the “solubility in canola, corn and MCT oil” value in data set [1] (room temperature) is recorded as “easily dissolved”. For the same compound, the solubility in water entry in data set [1] (water) was “not soluble in water; also recorded: not dissolved; also recorded: water insoluble”. In addition, in data set [2] (setting [3]), the “particle size (average size)” value amounted to 192 nm and the zeta potential entry is “+65 mV”. Moreover, in data set [2] (NRTOCl dispersed in DI water, TEM images), the “particle size by TEM” value is “around 50 nm”. In the data set on porcine pancreatin, the NRTO completely digested result is “at least 27.5%”, the “digestibility to release NR” value is listed as “digestible”, the “nicotinamide detected (N-glycosidic bond hydrolysis) during digestion” value was 3.9% and the “nicotinamide measured (N-glycosidic bond hydrolysis) during digestion” value is listed as 2.4%. In the data set on porcine pancreatin, the “ribose-trioleates formed during digestion” value stood at 2.4%.

For the origin of these results see patent US20240424010A1, “NICOTINAMIDE RIBOSIDE TRIOLEATES CHLORIDE, COMPOSITIONS CONTAINING THIS COMPOUND, AND METHODS OF MAKING AND USING THIS COMPOUND” (SOCIETE DES PRODUITS NESTLE S.A., priority 2021, published 2024).
